Reference: patent US6902881B2, “Compounds and methods for regulating cell differentiation” (priority 2000, dated 2005)
Several values for one entry are separate records, joined by “and”; a condition that tells them apart may be missing. Equal values may be shown once.

What was measured:
[1] = test system: UV-irradiated Xenopus laevis stage 1 embryos; test: Rescue of dorsal axis formation in UV-irradiated embryos, scored by dorsal anterior index (DAI); type: in vivo
Procedure: Several hundred spawned eggs were fertilized in vitro and incubated at 16 to 18° C. […] The vegetal surfaces of some of these embryos were irradiated with one or the other sources of UV light within 10 min of fertilization for 20-30 min. […] The embryos were not disturbed, touched or tipped from the moment of fertilization, during UV irradiation or for the duration of development. […] A score of 5 defines a normal dorsal axis, 4 a microcephalic, 3 a cyclopic, 2 an anoptic, 1 an acephalic and 0 an adorsal embryo.
The biological activities of biliverdin and its derivatives were tested by adding each of them to the incubation solution of embryos after the termination of the UV light exposure to either 254 or 366 nm UV light and at selected time periods between T ƒfm=0.4-2.5. Final concentrations of biliverdin ranged from 0.05 to 5 μM in less than 1% ethanol. […] An extinction coefficient of 51,000 was utilized to calculate their concentrations. All petri dishes were covered with aluminum foil to avoid light exposure. The extent of dorsal axis formation was analyzed by the morphological criteria described above.
Stage 1 embryos were exposed to UV-light source emitting at 366 nm (Mineralight UVSL-58, Ultraviolet Products, Inc., San Gabriel, Calif.) as described and then incubated in the presence of pure candidate DCD or commercially available biliverdin (Sigma-Aldrich, St. Louis, Mo.) at final concentrations from 0.05 to 1.2 μM in less than 1% ethanol. The concentrations were calculated using a molar extinction coefficient of 51,000. One group of embryos was not exposed to UV light but was incubated in the presence of 0.5 μM of candidate DCD.

[2] = test system: thyroid cancer (Th) cells; test: Proliferation of thyroid carcinoma cells; type: cell-based, human
[3] = UV exposed embryos incubated with the intact tetrapyrrole

Question: For `C=CC1=C(C)/C(=C/C2=NC(=C\c3[nH]c(/C=C4\NC(=O)C(C)=C4C=C)c(C)c3CCC(=O)O)/C(CCC(=O)O)=C2C)NC1=O` [Biliverdin, biliverdin IXα], which “embryos scored with a DAI between 5-4” value ([1]; 254 nm UV light, treated with biliverdin) is on record?
Answer: About 51%

Question: And the “concentration at which plateau of recovery is reached” value ([1]; 254 or 366 nm UV light, FIG. 3C)?
Answer: 1.2 µM

Question: And the “recovery of dorsal axial structures” value ([1]; 254 or 366 nm UV-irradiated embryos, μM amounts)?
Answer: recover to form dorsal axial structures

Question: What about the “embryos that recover and are scored with 4-5” value ([1]; 366 nm UV light, incubated with biliverdin) of the same molecule?
Answer: ~55%

Question: What about the “embryos that do not develop dorsal structures, DAI of 0” value [1, 3] of the same molecule?
Answer: 20 to 30%

Question: What about the “tadpoles that develop with DAI scores of 5 or 4” value [1, 3] of the same molecule?
Answer: About 55%

Question: And the “degree of recovery of dorsal axis formation relative to oocyte biliverdin” value ([1]; UV-irradiated embryos, FIG. 2E)?
Answer: comparable

Question: And the “Average DAI score” value ([1]; embryos irradiated with 254 nm UV light, treated with biliverdin, DAI 5 normal, 0 adorsal)?
Answer: 2.72

Question: What about the “Average DAI score” value ([1]; embryos irradiated with 366 nm UV light, incubated with biliverdin, total population) of the same molecule?
Answer: 3.08

Question: What about the “division slower than control” value [2] of the same molecule?
Answer: 4.7 times

Question: And the “time until proliferation ceases” value [2]?
Answer: six days and 6 days

Question: And the “recovery of proliferative rate” value ([2]; 12-day observation period)?
Answer: did not recover its proliferative rate at all
